Test system: 377384-186-R-J1-PDC complex spheroid viability
Test: Anticancer human tumor 377384-186-R-J1-PDC patient-derived pancreatic carcinoma cell line growth inhibition [RAS]
Conditions: for IC50: curve of first compound; for viability, T/C: stronger effect = lower value
In short: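 Agents were tested in combination matrices in half-log decrements from a top concentration at or near clinical Cmax (10 microM if undetermined). Targets were multi-cell spheroids of tumour lines plus HUVEC and MSC stromal cells.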

[1] = second compound 0.000949 µM, first compound 0.0316 µM
[2] = second compound 0.000949 µM, first compound 0.1 µM
[3] = second compound 0.000949 µM, first compound 0.316 µM
[4] = second compound 0.000949 µM, first compound 1 µM
[5] = second compound 0.000949 µM, first compound 3.16 µM
[6] = second compound 0.000949 µM, first compound 10 µM
[7] = second compound 0.003 µM, first compound 0.0316 µM
[8] = second compound 0.003 µM, first compound 0.1 µM
[9] = second compound 0.003 µM, first compound 0.316 µM
[10] = second compound 0.003 µM, first compound 1 µM
[11] = second compound 0.003 µM, first compound 3.16 µM
[12] = second compound 0.003 µM, first compound 10 µM
[13] = second compound 0.00949 µM, first compound 0.0316 µM
[14] = second compound 0.00949 µM, first compound 0.1 µM
[15] = second compound 0.00949 µM, first compound 0.316 µM
[16] = second compound 0.00949 µM, first compound 1 µM
[17] = second compound 0.00949 µM, first compound 3.16 µM
[18] = second compound 0.00949 µM, first compound 10 µM
[19] = second compound 0.03 µM, first compound 0.0316 µM
[20] = second compound 0.03 µM, first compound 0.1 µM
[21] = second compound 0.03 µM, first compound 0.316 µM
[22] = second compound 0.03 µM, first compound 1 µM
[23] = second compound 0.03 µM, first compound 3.16 µM
[24] = second compound 0.03 µM, first compound 10 µM
[25] = second compound 0.0949 µM, first compound 0.0316 µM
[26] = second compound 0.0949 µM, first compound 0.1 µM
[27] = second compound 0.0949 µM, first compound 0.316 µM
[28] = second compound 0.0949 µM, first compound 1 µM
[29] = second compound 0.0949 µM, first compound 3.16 µM
[30] = second compound 0.0949 µM, first compound 10 µM
[31] = second compound 0.3 µM, first compound 0.0316 µM
[32] = second compound 0.3 µM, first compound 0.1 µM
[33] = second compound 0.3 µM, first compound 0.316 µM
[34] = second compound 0.3 µM, first compound 1 µM
[35] = second compound 0.3 µM, first compound 3.16 µM
[36] = second compound 0.3 µM, first compound 10 µM
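Note: spheroids exposed to compounds for seven days before readout.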

## CC(C)NCC(C(=O)N1CCN(c2ncnc3c2C(C)CC3O)CC1)c1ccc(Cl)cc1 (stereo unspecified) + CCn1c(-c2cccnc2C(C)OC)c2c3cc(ccc31)N1CCOC(CC(NC(=O)C(C(C)C)N(C)C(=O)C3(F)CCN(C(=O)C#CC(C)(C)N(C)C)CC3)C(=O)N3CCCC(N3)C(=O)OCC(C)(C)C2)C1
Second compound 0.000949 µM
  IC50: 3790 nM
Second compound 0.003 µM
  IC50: 2770 nM
Second compound 0.00949 µM
  IC50: 2770 nM
Second compound 0.03 µM
  IC50: 2540 nM
Second compound 0.0949 µM
  IC50: 2080 nM
Second compound 0.3 µM
  IC50: 2140 nM
[1]
  viability, T/C: 95.4%
[2]
  viability, T/C: 93.3%
[3]
  viability, T/C: 88.2%
[4]
  viability, T/C: 66.9%
[5]
  viability, T/C: 56%
[6]
  viability, T/C: 32.1%
[7]
  viability, T/C: 104%
[8]
  viability, T/C: 106%
[9]
  viability, T/C: 85.1%
[10]
  viability, T/C: 72.2%
[11]
  viability, T/C: 46.9%
[12]
  viability, T/C: 29.4%
[13]
  viability, T/C: 102%
[14]
  viability, T/C: 95.1%
[15]
  viability, T/C: 80.8%
[16]
  viability, T/C: 65.3%
[17]
  viability, T/C: 48.4%
[18]
  viability, T/C: 31%
[19]
  viability, T/C: 100%
[20]
  viability, T/C: 85.1%
[21]
  viability, T/C: 91.4%
[22]
  viability, T/C: 66.8%
[23]
  viability, T/C: 46.2%
[24]
  viability, T/C: 29.3%
[25]
  viability, T/C: 91.2%
[26]
  viability, T/C: 86.9%
[27]
  viability, T/C: 79.2%
[28]
  viability, T/C: 59.6%
[29]
  viability, T/C: 44.8%
[30]
  viability, T/C: 29.3%
[31]
  viability, T/C: 69.4%
[32]
  viability, T/C: 78.7%
[33]
  viability, T/C: 67.2%
[34]
  viability, T/C: 59.8%
[35]
  viability, T/C: 45.3%
[36]
  viability, T/C: 27.5%

## CC(Nc1ccc2c(c1)OCCn1cc(N3C(=O)OCC3C(F)F)nc1-2)C(N)=O (stereo unspecified) + CCn1c(-c2cccnc2C(C)OC)c2c3cc(ccc31)N1CCOC(CC(NC(=O)C(C(C)C)N(C)C(=O)C3(F)CCN(C(=O)C#CC(C)(C)N(C)C)CC3)C(=O)N3CCCC(N3)C(=O)OCC(C)(C)C2)C1
Second compound 0.000949 µM
  IC50: 650 nM
Second compound 0.003 µM
  IC50: 716 nM
Second compound 0.00949 µM
  IC50: 453 nM
Second compound 0.03 µM
  IC50: 510 nM
Second compound 0.0949 µM
  IC50: 280 nM
Second compound 0.3 µM
  IC50: 132 nM
[1]
  viability, T/C: 86.7%
[2]
  viability, T/C: 68.8%
[3]
  viability, T/C: 56.5%
[4]
  viability, T/C: 48%
[5]
  viability, T/C: 34%
[6]
  viability, T/C: 26.5%
[7]
  viability, T/C: 94.1%
[8]
  viability, T/C: 74.7%
[9]
  viability, T/C: 57.7%
[10]
  viability, T/C: 47.2%
[11]
  viability, T/C: 35.6%
[12]
  viability, T/C: 23.1%
[13]
  viability, T/C: 92.5%
[14]
  viability, T/C: 70%
[15]
  viability, T/C: 53.3%
[16]
  viability, T/C: 39.6%
[17]
  viability, T/C: 39.2%
[18]
  viability, T/C: 26.7%
[19]
  viability, T/C: 87.2%
[20]
  viability, T/C: 72.3%
[21]
  viability, T/C: 55.3%
[22]
  viability, T/C: 40.8%
[23]
  viability, T/C: 36.6%
[24]
  viability, T/C: 28.1%
[25]
  viability, T/C: 72.9%
[26]
  viability, T/C: 57.2%
[27]
  viability, T/C: 49.2%
[28]
  viability, T/C: 38.4%
[29]
  viability, T/C: 37.5%
[30]
  viability, T/C: 24.9%
[31]
  viability, T/C: 70.3%
[32]
  viability, T/C: 54.4%
[33]
  viability, T/C: 35.8%
[34]
  viability, T/C: 38%
[35]
  viability, T/C: 30.1%
[36]
  viability, T/C: 25%

## O=C(c1ccc(F)c(F)c1Nc1ccc(I)cc1F)N1CC(O)([C@@H]2CCCCN2)C1 + CCn1c(-c2cccnc2C(C)OC)c2c3cc(ccc31)N1CCOC(CC(NC(=O)C(C(C)C)N(C)C(=O)C3(F)CCN(C(=O)C#CC(C)(C)N(C)C)CC3)C(=O)N3CCCC(N3)C(=O)OCC(C)(C)C2)C1
Second compound 0.000949 µM
  IC50: 33.2 nM
Second compound 0.003 µM
  IC50: 44.8 nM
Second compound 0.00949 µM
  IC50: 28.6 nM
Second compound 0.03 µM
  IC50: 36 nM
Second compound 0.0949 µM
  IC50: 29.9 nM
Second compound 0.3 µM
  IC50: 16.8 nM
Second compound 0.000949 µM, first compound 0.00316 µM
  viability, T/C: 87.5%
Second compound 0.000949 µM, first compound 0.01 µM
  viability, T/C: 85.8%
[1]
  viability, T/C: 49.2%
[2]
  viability, T/C: 17.4%
[3]
  viability, T/C: 1.96%
[4]
  viability, T/C: 1.6%
Second compound 0.003 µM, first compound 0.00316 µM
  viability, T/C: 103%
Second compound 0.003 µM, first compound 0.01 µM
  viability, T/C: 89.2%
[7]
  viability, T/C: 63.1%
[8]
  viability, T/C: 22.7%
[9]
  viability, T/C: 2.13%
[10]
  viability, T/C: 0.43%
Second compound 0.00949 µM, first compound 0.00316 µM
  viability, T/C: 98.8%
Second compound 0.00949 µM, first compound 0.01 µM
  viability, T/C: 75%
[13]
  viability, T/C: 50.3%
[14]
  viability, T/C: 19.1%
[15]
  viability, T/C: 1.75%
[16]
  viability, T/C: 0.87%
Second compound 0.03 µM, first compound 0.00316 µM
  viability, T/C: 96.2%
Second compound 0.03 µM, first compound 0.01 µM
  viability, T/C: 77.8%
[19]
  viability, T/C: 57.3%
[20]
  viability, T/C: 18.9%
[21]
  viability, T/C: 4.23%
[22]
  viability, T/C: 0.57%
Second compound 0.0949 µM, first compound 0.00316 µM
  viability, T/C: 85.5%
Second compound 0.0949 µM, first compound 0.01 µM
  viability, T/C: 77.8%
[25]
  viability, T/C: 47.5%
[26]
  viability, T/C: 17.7%
[27]
  viability, T/C: 1.32%
[28]
  viability, T/C: 0.36%
Second compound 0.3 µM, first compound 0.00316 µM
  viability, T/C: 77.1%
Second compound 0.3 µM, first compound 0.01 µM
  viability, T/C: 60.6%
[31]
  viability, T/C: 36.9%
[32]
  viability, T/C: 10.7%
[33]
  viability, T/C: 0.96%
[34]
  viability, T/C: 0.43%
